The text below walks through data of patent US8853188B2, “Compositions and methods for cancer treatment” (Women and Infants Hospital of RI, Inc., priority 2005, dated 2014).

The star is where a group is joined. Cbz = O=C(OCc1ccccc1)*; CH2F = FC*

In one data set the test system is SMS-KCNR cells. The data set is described as follows: Apoptosis in apoptosis-resistant NB cells. It is filed as cell-based. The following applies: pretreatment before B3CD. As to the method:
(§1) NB is characterized with defective apoptotic pathways. […] Neuronal (N-) type SH-SY5Y and IMR-32 cells, and stromal (S-) type SMS-KCNR cells which are resistant to apoptosis were used. […] A defect in caspase-8 or its activation causes resistance to apoptosis and in turn to chemotherapy in all these cells. On the other hand, these cells carry intact intrinsic apoptotic pathway, and executioner caspase-3 is activated by caspase-9 route.
(§2) In depth studies were carried out to assess the activation of intrinsic and extrinsic apoptotic pathways. […] Caspase-9 was activated by B3CD in these cells (FIG. 10B), indicating an active role of intrinsic pathway of apoptosis. […] However, caspase-8 was undetectable in IMR-32 and SH-SY5Y cells.
(§3) Although caspase-8 was detected in SMS-KCNR cells, it was not activated by B3CD (FIG. 10D). Actin immunoblotting was used as loading control in the above studies (data not shown).

For a further data set, the system named is IMR-32 cells. As to the kind of experiment: Apoptosis in apoptosis-resistant NB cells. The following applies: IMR-32, pretreatment before B3CD. Type of data set: cell-based. As to the method: as §1, §2, §3
The test system of data set [1] is SH-SY5Y, IMR-32 and SMS-KCNR cells. The following applies: cells with defects in caspase-8 activation; cited from earlier work.
For another data set, the system named is caspase-3. The data set is described as follows: Caspase-3 activation with specific substrate in SK-N-SH cells. It is filed as cell-based. On the procedure:
Caspases are integral to apoptosis in cells. Following the treatment of SK-N-SH cells with 250 nM B3CD, activation of caspase-3 was measured by using specific substrate.

Data set [2] has as its system SK-N-SH cells. As to the kind of experiment: Cell viability by MTS assay. Type of data set: cell-based. The following applies: 0-800 nM, 48 hours. On the procedure:
(§4) SK-N-SH and SH-SY5Y neuroblastic cells were treated with increasing doses of calcidiol or B3CD (0, 25, 50, 100, 200, 400 and 800 nM) for 48 hours. Cell viability was assessed by MTS assay and proliferation was determined by BrdU incorporation assay.

The subject of data set [3] is SK-N-SH cells. As to the kind of experiment: Proliferation by BrdU incorporation assay. It is filed as cell-based. The following applies: 0-800 nM, 48 hours. On the procedure:
as §4
(Uptake of a labelled nucleoside into DNA is a usual measure of proliferation.)

For the next data set, the system named is panel of cancer cells. The data set is described as follows: Antiproliferative and cytotoxic activity on a panel of cancer cells (MTS, 96 well plates). It is filed as cell-based. The following applies: parent compound used as control; data not shown. From the text: A panel of cancer cells is used to evaluate the antiproliferative and cytotoxic activities of B3CD and related analogs. The cells include colon (Colo), breast (MCF-7 and MDA-MB-231), lung (A549), prostate PC3 and LNCaP), melanoma (SK-MEL-31), renal (Caki-1), ovarian (OVCAR-3), bladder (T24), pancreatic (BxPC-3), hepatocarcinoma (Hep3B), neuroblastoma (SH-SY5Y), glioblastoma (SNB-19), medulloblastoma (D283 Med), skin (LS123), squamous cell carcinoma (Scc-15), acute promyelocytic leukemia (APL), myeloblastic (HL-60) and myelomonocytic (U937).
The anticancer activity testing will be carried out by high throughput screening. The cancer cells will be cultured in 96 well plates and treated with the library. B3CD has been tested in this system and was effective at a 200 nM dose. For general screening, 2-200 nM doses will be used. Cells will be treated with the compounds for 12, 24, 48 and 72 hours. A 96 well plate format allows testing a large number of compounds simultaneously. An MTS based colorimetric method of evaluation of proliferation will be utilized, which is widely used in cancer drug discovery. The fingerprint of profiled drugs using 60 cell-line screening program by NCl using COMPARE algorithm (Paull K D, Shoemaker R H, Hodes L, Monks A, Scudiero D A, Rubinstein L, Plowman J, Boyd M R. Display and analysis of patterns of differential activity of drugs against human tumor cell lines: development of mean graph and COMPARE algorithm. J Natl Cancer Inst 1989; 81:1088).
(§5) Materials and methods. Proliferation was measured by MTS and BrdU incorporation assays. Apoptosis was assessed by DNA fragmentation, Cell Death Detection ELISA and caspase-3-assays. Effect of B3CD on TrkB signaling by BDNF was assessed by Western Blot analysis of AKT and ERK phosphorylation. The effect on angiogenesis was determined by chick chorioallantoic membrane (CAM) assay and aortic ring assay.

The subject of data set [4] is VEGF induced angiogenesis. As to the kind of experiment: Chick chorioallantoic membrane (CAM) assay. Type of data set: in vivo. The following applies: VEGF present. As to the method:
as §5
The antiproliferative effect of B3CD on endothelial cells was further investigated.
The ability of B3CD to inhibit angiogenesis/neovascularization was tested. Preliminary studies were carried out using chick chorioallantoic membrane (CAM) assay. Calcidiol or B3CD were deposited in the presence of growth factor (VEGF) and deposited on the CAM and eggs were incubated for 3 days at 37° C. (3% CO2). The control carried the growth factor alone. VEGF induces angiogenesis which results in sprouting of capillaries from the large vessels. The compounds diffuse out and any inhibitory molecule would reduce the growth of blood vessel network.

For data set [5] the following is noted: mouse, in vivo. As to the method:
FIG. 6A. In vivo studies to determine apparent systemic toxicity of B3CD. Mice were injected with the specified amounts of B3CD (i.p.) once in 48 hr for 28 days. The animals were weighed to assess the effect of B3CD on change in body weight.
FIG. 6B. At the end of the experiment (6A) mice were sacrificed and blood collected to estimate serum calcium as a measure of hypercalcemia.
A major concern was the potential systemic toxicity of B3CD due to hypercalcemia since B3CD (FIG. 1) is a derivative of calcidiol, which is a family member of calcitriol (Schmidt-Gayk H, Bouillon R, Roth H J. Measurement of vitamin D and its metabolites (calcidiol and calcitriol) and their clinical significance. Scand J Clin Lab Invest Suppl. 1997; 227:35-45). Therapeutic doses of calcitriol lead to increased serum calcium and consequently death; therefore, hypercalcemia is a hallmark of lethality of pharmacologic doses of calcitriol. In the event that further testing in vivo might show lethal calcemic side effects, preliminary studies were carried out to determine any overt toxic effects in a murine model.
The effect of B3CD on serum calcium levels in SCID mice was tested. These studies were carried out in Boston University School of Medicine, Boston, Mass., in accordance with institutional guidelines. B3CD, calcidiol and calcitriol were formulated in 80% polyethylene glycol in PBS and were administered as i.p. injections once in 48 hours for 28 days. Animals were euthanized, sera collected and analyzed immediately for serum calcium in the hospital core facility. The animals were divided into 4 groups of 5 animals each.

Take Cbz-LEHD-CH2F [reference compound]: the “effect of pretreatment on B3CD induced apoptosis” value in the data set on SMS-KCNR cells and with IMR-32 cells was “effectively inhibited apoptosis” each time.

`COc1cccc2c1C(=O)c1c(O)c3c(c(O)c1C2=O)C[C@@](O)(C(=O)CO)C[C@@H]3O[C@H]1C[C@H](N)[C@H](O)[C@H](C)O1` [doxorubicin]: the “apoptosis and activation of caspase-9 and -3” value in data set [1] is “undergo apoptosis and activation of caspase-9 and -3”.

Turning to `C=C1CC[C@H](O)C/C1=C/C=C1\CCC[C@@]2(C)C1CC[C@@H]2[C@H](C)CCCC(C)(C)O` (stereo partly drawn) [calcidiol, (1 S,Z)-3-(2-((1R,7aR,E)-1-((R)-6-hydroxy-6-methylheptan-2-yl)-7a-methyloctahydro-4H-inden-4-ylidene)ethylidene)-4-methylenecyclohexan-1-ol, reference compound], the “caspase-3 activation (in words)” value in the data set with caspase-3 was “did not show any significant change”. For the same compound, the “viability of SK-N-SH cells (in words)” value in the data set with SK-N-SH cells [2] is reported as “did not show any similar effects”. Further, the “proliferation, BrdU incorporation” value with SK-N-SH cells [3] was “did not show inhibitory activity”. Moreover, the “antiproliferative, cytotoxic, apoptotic activities” value in the data set with panel of cancer cells is “did not exhibit any antiproliferative, cytotoxic, apoptotic activities”. Moreover, the “inhibition of angiogenesis / neovascularization (in words)” value in [4] was “no inhibition of neovascularization”.

Consider `C=C1/C(=C\C=C2/CCC[C@]3(C)[C@@H]([C@H](C)CCCC(C)(C)O)CC[C@@H]23)C[C@@H](O)C[C@@H]1O` [calcitriol, 1,25-dihydroxy-vitamin D3, reference compound], for which, in data set [5], the “clinical signs (lethargy, tolerance to handling, mobility)” value is “appeared lethargic and exhibited a decreased tolerance to handling with reduced mobility”.
